Like-named read-outs stand apart in the source and are kept apart here.
Legend:
[1] = Acute toxicity (LD50) in male mice; details: mouse, in vivo, po
[2] = test system: passive avoidance response failure by electric shock; test: Passive avoidance response failure by electric shock as model of amnesia; type: in vivo; details: p.o., male Wistar rats, 3 hours or more after oral administration
Source text: B. PASSIVE AVOIDANCE RESPONSE FAILURE BY ELECTRIC SHOCK AS MODEL OF AMNESIA
The test apparatus used, called as "Two Compartment Avoidance Box", consisted of a large lit compartment and a small dark compartment having a grid floor to which an electric current can be applied, these two compartments being painted black innerly and connected to each other
Male Wistar rats of 170-220 g in body weight enter into the small box soon after they are introduced into the large box. […] This response is called as "passive avoidance response".
However, if an electric shock of 60 mA, 200 Hz for 0.8 second is given to the rat by electrodes set on both ears of the rat immediately after the rat comes out of the small box upon the application of the electric current, the "passive avoidance response" is inhibited. Indeed, the period for entering into the small box from the large box, latency, is shortened. This phenomenon is caused by loss of memory of the electric current applied from the grid floor by the electric shock. The shortened time of latency is used as an index of the loss of memory.
A memory improvement effect of a test compound is expressed in the degree of prolongation of latency (% improvement) in a test carried out 3 hours or more after the oral administration of the test compound after application of an electric shock.

[3] = test system: reserpine-induced hypothermia; test: Antagonistic activity against reserpine-induced hypothermia; type: in vivo, ddY male mice; details: Mus musculus, po, read-out: ED50 (dose exhibiting 50% antagonistic activity against reserpine hypothermia)
Description: A. ANTAGONISTIC ACTIVITY AGAINST RESERPINE-INDUCED HYPOTHERMIA
A test was carried out using ddY male mice of 22-25 g in body weight, one group consisting of 6 mice.
The body temperature of mice was approximately 38° C. before the test. At 4 hours after intraperitoneal administration of reserpine in an amount of 5 mg/kg the body temperature of mice was reduced by approximately 8° C. in average. The test compound was simultaneously orally administered with 5 mg/kg of reserpine, and the degree of antagonistic effect of the test compound on the hypothermal action of reserpine was measured. This test has hitherto been the commonest method for evaluating anti-depressant activity.
Percentage (%) of an antagonistic activity was calculated by varying the doses of each test compound.

[4] = mice, test compound orally, simultaneously with reserpine 5 mg/kg, body temperature at 4 hours, Litchfield-Wilcoxon method

Cc1cc2c(-c3ccccc3F)nc(N3CCNCC3)nc2s1 [Example 14]
LD50 [1]: 1110 mg/kg
Improvement (prolongation of latency) ([2]; 25 mg/kg): 30.9%
Improvement (prolongation of latency) ([2]; 100 mg/kg): 51.5%
ED50 [3, 4]: 0.27 mg/kg

NC(=O)CN1CCCC1=O [Piracetam, reference compound]
Improvement (prolongation of latency) ([2]; 250 mg/kg): 22.0%
Improvement (prolongation of latency) ([2]; 500 mg/kg): 14.1%

Cc1cc2c(-c3ccccc3)nc(N3CCNCC3)nc2s1 [Example 1, 6-METHYL-4-PHENYL-2-PIPERAZINYLTHIENO[2,3-d]PYRIMIDINE]
LD50 [1]: 1170 mg/kg
Improvement (prolongation of latency) ([2]; 25 mg/kg): 6.8%
Improvement (prolongation of latency) ([2]; 100 mg/kg): 22.7%
ED50 [3, 4]: 2 mg/kg

Cc1sc2nc(N3CCNCC3)nc(-c3ccccc3)c2c1C [Example 4, 5,6-dimethyl-4-phenyl-2-piperazinyl-thieno[2,3-d]pyrimidine]
LD50 ([1]; male mice): 1330 mg/kg
ED50 [3, 4]: 1.8 mg/kg

Cc1cc2c(-c3ccccc3C#N)nc(N3CCNCC3)nc2s1 [Example 20]
LD50 [1]: 370 mg/kg
ED50 [3, 4]: 1.5 mg/kg

CN(C)CCC=C1c2ccccc2CCc2ccccc21 [Amitriptyline, reference compound]
LD50 ([1]; male mice): 380 mg/kg
ED50 ([3]; 4 h): 14.5 mg/kg

Cc1cc2c(-c3ccccc3Br)nc(N3CCNCC3)nc2s1 [Example 15]
LD50 [1]: 1750 mg/kg
ED50 [3, 4]: 2.9 mg/kg

Clc1cc2c(-c3ccccc3)nc(N3CCNCC3)nc2s1 [Example 7, 6-chloro-4-phenyl-2-piperazinyl-thieno[2,3-d]pyrimidine]
ED50 [3, 4]: 2.4 mg/kg

Cc1csc2nc(N3CCNCC3)nc(-c3ccccc3)c12 [Example 5, 5-methyl-4-phenyl-2-piperazinyl-thieno[2,3-d]pyrimidine]
LD50 ([1]; male mice): 275 mg/kg
ED50 [3, 4]: 4 mg/kg

Cc1cc2c(-c3ccccc3C)nc(N3CCNCC3)nc2s1 [Example 16]
LD50 [1]: 1400 mg/kg
Improvement (prolongation of latency) ([2]; 25 mg/kg): 12.8%
Improvement (prolongation of latency) ([2]; 100 mg/kg): 46.6%
ED50 [3, 4]: 0.5 mg/kg
